In patent publication EP2902382A1, “Primary hydroxylamines and uses thereof” (Fundació Institut de Recerca Biomèdica IRB (Barcelona), priority 2014, dated 2015) one finds IC50, MIC and biofilm formation data, which are given here for 8 molecules.

Structures are written as SMILES. Converted amounts (≈) assume the structure as drawn. Where a name gives a salt, the structure may show the parent alone. Read-outs that look alike come from different tables or passages of the source.

Assay [1] relates to murine macrophage J774 cell line. Kind of assay: Cytotoxicity, MTT colorimetric cell viability assay. The format is cell-based. To be noted: Mus musculus, J774 macrophages, 24 and 48 h of exposure (time not given), read-out: Cytoxicity (IC50).
Another assay deals with Bacillus anthracis. The experiment in a line: microbe, parasite or virus in culture. The format is cell-based, Bacillus anthracis Sterne 7700 pXO1-/pXO2-. To be noted: 9 h, read-out: MIC (minimum inhibitory concentration).
The test system of a further assay is Staphylococcus aureus. The experiment in a line: Minimum inhibitory concentration (MIC), microtiter broth dilution method. Format: cell-based, Staphylococcus aureus ATCC 12600 (CECT 86). To be noted: read-out: MIC (minimum inhibitory concentration). (In general: In broth dilution the organism is exposed to a series of concentrations in liquid medium.)
A further assay relates to Pseudomonas aeruginosa. The description is as above. To be noted: read-out: MIC (minimum inhibitory concentration). Format: cell-based, Pseudomonas aeruginosa ATCC 15692 (CECT 4122).
In the next assay the test system is Enterococcus faecalis. The assay is described as above. The format is cell-based, Enterococcus faecalis ATCC 19433 (CECT 481). To be noted: TSB broth, 37°C for 9 h, mean of triplicates.
In another assay the test system is S. aureus. Format: cell-based.
The next assay has as its system P. aeruginosa. Kind of assay: Capacity to inhibit the formation of bacterial biofilms. The format is cell-based. To be noted: 37°C for 48 h without agitation, viable count (cfu/ml), Fig. 1.
Another assay deals with Staphylococcus epidermis. Kind of assay: Minimum inhibitory concentration (MIC), microtiter broth dilution method. Format: cell-based, Staphylococcus epidermidis ATCC 1798 (CECT 231). To be noted: TSB broth, 37°C for 9 h, mean of triplicates.
Where [2] appears, read: TSB broth, 37°C for 9 h, mean of triplicates.

On to `ONCc1ccccc1` [Comp 7, N-Benzyl-hydroxylamine hydrochloride, reference compound], for which the concentration for half-maximal inhibition (IC50) (usually the concentration at which inhibition is half-maximal) in assay [1] was greater than 4 mM. Moreover, the MIC in the assay with Bacillus anthracis, in the assay on Staphylococcus aureus (9 h) and in the assay with Pseudomonas aeruginosa (9 h) was greater than 4000 µM throughout.

With `COc1cccc(OC)c1CNO` [Comp 8, N-(2,6-Dimethoxybenzyl)-hydroxylamine, reference compound], the MIC in the assay on Bacillus anthracis, with Staphylococcus aureus (setting [2]) and in the assay with Pseudomonas aeruginosa (setting [2]) was greater than 4000 µM throughout.

On to `ONCCc1ccccc1` [Example 1, N-phenethyl-hydroxylamine], for which the MIC in the assay with Enterococcus faecalis lay in the range of 1000 to 2000 µM (≈ 137 to 274 µg/mL); in the assay with Bacillus anthracis, 250 to 500 µM (≈ 34.3 to 68.6 µg/mL); with Staphylococcus aureus (setting [2]), 250 to 500 µM (≈ 34.3 to 68.6 µg/mL); with Pseudomonas aeruginosa (setting [2]), 500 to 1000 µM (≈ 68.6 to 137 µg/mL). Further, in assay [1], the 50% inhibitory concentration (IC50) amounted to 1.89 mM. Also, the biofilm formation entry in the assay on S. aureus and in the assay with P. aeruginosa was “inhibit” in each case.

On to `ONCC1CCCCC1` [Example 2, N-cyclohexylmethyl-hydroxylamine], for which the MIC in the assay on Enterococcus faecalis is 500 to 1000 µM (≈ 64.6 to 129 µg/mL); in the assay with Bacillus anthracis it was 250 to 500 µM (≈ 32.3 to 64.6 µg/mL); with Staphylococcus epidermis, 250 to 500 µM (≈ 32.3 to 64.6 µg/mL); in the assay on Staphylococcus aureus (setting [2]), 250 to 500 µM (≈ 32.3 to 64.6 µg/mL); with Pseudomonas aeruginosa (setting [2]), 125 to 250 µM (≈ 16.2 to 32.3 µg/mL). Besides, the IC50 in assay [1] amounted to 1.33 mM. Moreover, the biofilm formation result in the assay with S. aureus and with P. aeruginosa was “inhibit” in each case.

Regarding `ONCc1ccc(F)cc1` [Example 3, N-(4-fluorobenzyl)-hydroxylamine], the MIC against Enterococcus faecalis lay within 500 to 1000 µM (≈ 70.6 to 141 µg/mL); in the assay on Bacillus anthracis, 125 to 625 µM (≈ 17.6 to 88.2 µg/mL); in the assay with Staphylococcus epidermis, 125 to 250 µM (≈ 17.6 to 35.3 µg/mL); with Staphylococcus aureus (setting [2]), 500 to 1000 µM (≈ 70.6 to 141 µg/mL); in the assay on Pseudomonas aeruginosa (setting [2]), 1000 to 2000 µM (≈ 141 to 282 µg/mL). The IC50 in assay [1] was 1.3 mM. Further, the biofilm formation entry with S. aureus and in the assay with P. aeruginosa was “inhibit” in each case.

As to `COc1ccc(CNO)c(OC)c1` [Example 4, N-(2,4-dimethoxybenzyl)-hydroxylamine], the MIC was in the range of 500 to 1000 µM (≈ 91.6 to 183 µg/mL) with Enterococcus faecalis; 125 to 250 µM (≈ 22.9 to 45.8 µg/mL) with Bacillus anthracis; 125 to 250 µM (≈ 22.9 to 45.8 µg/mL) against Staphylococcus epidermis; 500 to 1000 µM (≈ 91.6 to 183 µg/mL) in the assay with Staphylococcus aureus (setting [2]); 1000 to 2000 µM (≈ 183 to 366 µg/mL) in the assay with Pseudomonas aeruginosa (setting [2]). In addition, the IC50 in assay [1] came to 2.27 mM. The biofilm formation result with S. aureus and with P. aeruginosa was “inhibit” in each case.

As for `COc1ccc(CNO)c(C)c1` [Example 5, N-(4-methoxy-2-methylbenzyl)-hydroxylamine], the MIC with Enterococcus faecalis is 250 to 500 µM (≈ 41.8 to 83.6 µg/mL); in the assay on Bacillus anthracis it was 125 to 625 µM (≈ 20.9 to 105 µg/mL); in the assay with Staphylococcus epidermis it was 250 to 500 µM (≈ 41.8 to 83.6 µg/mL); with Staphylococcus aureus (setting [2]), greater than 4000 µM; in the assay on Pseudomonas aeruginosa (setting [2]) it was 1000 to 2000 µM (≈ 167 to 334 µg/mL). Also, the IC50 in assay [1] was found to be 2.18 mM.

For the molecule `ONCc1cc(C(F)(F)F)cc(C(F)(F)F)c1` [Example 6, N-(3,5-bis-trifluoromethylbenzyl)-hydroxylamine], the MIC lay in the range of 500 to 1000 µM (≈ 130 to 259 µg/mL) against Enterococcus faecalis; 125 to 625 µM (≈ 32.4 to 162 µg/mL) in the assay with Bacillus anthracis; 125 to 250 µM (≈ 32.4 to 64.8 µg/mL) in the assay on Staphylococcus epidermis; 250 to 500 µM (≈ 64.8 to 130 µg/mL) in the assay on Staphylococcus aureus (setting [2]); 1000 to 2000 µM (≈ 259 to 518 µg/mL) in the assay on Pseudomonas aeruginosa (setting [2]). The IC50 in assay [1] was 2.07 mM.
